{
  "source": "paper PMC5293562",
  "about": "“Engineering a trifunctional proline utilization A chimaera by fusing a DNA-binding domain to a bifunctional PutA” (Bioscience Reports, 2016)",
  "key": {"EcRHH–RcPutA": {"tested_on": "T1, EcRHH–RcPutA", "T1 construct": "gene putA; single polypeptide: E. coli PutA RHH domain (residues 1-52) fused via NdeI linker to N-terminus of full-length R. capsulatus PutA; 1180 aa; N-terminal His6 tag retained; pET28a, E. coli BL21(DE3) pLysS; homodimer, 126 kDa monomer", "assay": "stopped-flow, CoQ1 reduction at […] nm", "assay_type": "biochemical, Rhodobacter capsulatus", "conditions": "50 mM potassium phosphate pH 7.5, 25 mM NaCl, 23°C"}, "EcPutA": {"target": "T2, EcPutA (Escherichia coli, UniProt P09546)", "T2 construct": "gene putA", "T2 sequence (P09546 whole entry)": "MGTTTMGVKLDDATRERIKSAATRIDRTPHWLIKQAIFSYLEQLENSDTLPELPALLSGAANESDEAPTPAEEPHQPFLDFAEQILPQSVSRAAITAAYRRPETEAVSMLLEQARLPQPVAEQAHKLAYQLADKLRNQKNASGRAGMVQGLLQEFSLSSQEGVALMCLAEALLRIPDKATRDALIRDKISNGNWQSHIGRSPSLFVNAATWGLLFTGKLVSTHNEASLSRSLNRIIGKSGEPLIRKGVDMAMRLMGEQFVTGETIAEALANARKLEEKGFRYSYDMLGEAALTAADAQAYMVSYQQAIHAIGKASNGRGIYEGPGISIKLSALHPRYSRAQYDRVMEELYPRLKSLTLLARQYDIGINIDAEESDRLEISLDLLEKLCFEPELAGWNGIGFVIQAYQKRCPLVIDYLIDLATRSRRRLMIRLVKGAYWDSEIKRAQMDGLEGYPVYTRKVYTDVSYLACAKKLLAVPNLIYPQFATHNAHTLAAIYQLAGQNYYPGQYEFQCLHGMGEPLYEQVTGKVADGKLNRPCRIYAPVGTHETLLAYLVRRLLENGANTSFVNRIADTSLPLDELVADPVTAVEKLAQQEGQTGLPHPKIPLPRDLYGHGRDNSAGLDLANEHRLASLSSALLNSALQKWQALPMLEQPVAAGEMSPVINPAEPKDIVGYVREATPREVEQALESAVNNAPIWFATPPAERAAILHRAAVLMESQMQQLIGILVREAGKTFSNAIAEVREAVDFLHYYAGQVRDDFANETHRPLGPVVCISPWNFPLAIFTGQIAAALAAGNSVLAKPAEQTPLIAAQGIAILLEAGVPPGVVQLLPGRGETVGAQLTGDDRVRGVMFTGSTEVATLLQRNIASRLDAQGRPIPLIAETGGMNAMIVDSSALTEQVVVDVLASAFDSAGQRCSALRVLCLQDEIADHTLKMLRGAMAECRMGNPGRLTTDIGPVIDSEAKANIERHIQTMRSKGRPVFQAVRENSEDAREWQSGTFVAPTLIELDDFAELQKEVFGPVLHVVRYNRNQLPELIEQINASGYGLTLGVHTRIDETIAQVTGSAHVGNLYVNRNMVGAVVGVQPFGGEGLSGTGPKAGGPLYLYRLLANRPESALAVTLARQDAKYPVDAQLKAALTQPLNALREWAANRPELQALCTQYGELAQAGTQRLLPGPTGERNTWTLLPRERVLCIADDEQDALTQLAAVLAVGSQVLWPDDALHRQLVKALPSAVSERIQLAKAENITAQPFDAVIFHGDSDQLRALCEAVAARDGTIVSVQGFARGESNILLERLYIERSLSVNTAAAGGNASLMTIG", "conditions": "50 mM proline reduces flavin; anaerobic; HEPES pH 7.5, 150 mM NaCl; room temperature"}, "RcPutA": {"target": "T3, RcPutA (Rhodobacter capsulatus, UniProt D5AN87)", "T3 construct": "gene putA", "T3 sequence (D5AN87 1-1127)": "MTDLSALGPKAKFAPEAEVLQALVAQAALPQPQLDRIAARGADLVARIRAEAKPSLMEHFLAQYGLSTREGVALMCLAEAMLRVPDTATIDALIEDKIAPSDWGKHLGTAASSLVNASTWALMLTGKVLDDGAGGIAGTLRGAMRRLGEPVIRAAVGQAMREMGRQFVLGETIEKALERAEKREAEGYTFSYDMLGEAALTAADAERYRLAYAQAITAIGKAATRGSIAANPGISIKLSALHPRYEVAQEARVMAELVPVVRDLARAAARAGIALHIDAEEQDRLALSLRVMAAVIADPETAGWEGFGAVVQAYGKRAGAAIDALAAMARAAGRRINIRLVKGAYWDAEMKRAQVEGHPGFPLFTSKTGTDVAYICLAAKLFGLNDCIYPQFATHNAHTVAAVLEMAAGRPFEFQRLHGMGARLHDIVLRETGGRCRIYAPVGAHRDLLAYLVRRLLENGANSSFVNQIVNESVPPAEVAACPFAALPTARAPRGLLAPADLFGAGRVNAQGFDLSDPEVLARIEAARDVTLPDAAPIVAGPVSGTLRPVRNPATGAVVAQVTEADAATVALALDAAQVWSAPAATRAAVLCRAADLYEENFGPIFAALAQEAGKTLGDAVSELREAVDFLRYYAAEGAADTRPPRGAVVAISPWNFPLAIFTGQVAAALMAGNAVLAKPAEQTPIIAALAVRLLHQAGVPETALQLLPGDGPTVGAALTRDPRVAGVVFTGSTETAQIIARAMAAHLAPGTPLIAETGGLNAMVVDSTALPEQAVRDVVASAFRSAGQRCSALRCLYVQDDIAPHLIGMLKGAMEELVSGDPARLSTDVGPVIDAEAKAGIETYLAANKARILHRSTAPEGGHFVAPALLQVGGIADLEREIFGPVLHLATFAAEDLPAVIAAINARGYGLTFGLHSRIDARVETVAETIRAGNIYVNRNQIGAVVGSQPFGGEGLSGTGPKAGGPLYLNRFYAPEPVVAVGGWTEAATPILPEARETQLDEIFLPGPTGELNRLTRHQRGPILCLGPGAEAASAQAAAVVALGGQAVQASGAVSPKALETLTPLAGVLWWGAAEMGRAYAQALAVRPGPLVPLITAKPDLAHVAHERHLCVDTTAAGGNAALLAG", "conditions": "50 mM proline reduces flavin; anaerobic; HEPES pH 7.5, 150 mM NaCl; room temperature"}, "[1]": {"target": "EcRHH–RcPutA chimaera (RHH domain of Escherichia coli PutA fused to the N-terminus of Rhodobacter capsulatus PutA) (Escherichia coli | Rhodobacter capsulatus) (UniProt P09546)", "assay": "SAXS; three protein concentrations after size exclusion chromatography in 50 mM Tris, 200 mM NaCl, 0.5 mM THP, pH 7.5; mass from volume of correlation and Porod-Debye analysis; shape reconstruction with 2-fold symmetry"}, "[2]": {"target": "EcRHH–RcPutA chimaera (RHH domain of Escherichia coli PutA fused to the N-terminus of Rhodobacter capsulatus PutA) (Escherichia coli | Rhodobacter capsulatus) (UniProt P09546)", "assay": "AUC; sedimentation equilibrium, 0.2, 0.5 and 0.8 mg/ml, 8000 rpm, 50 mM Tris pH 7.5, 100 mM NaCl, 0.5 mM EDTA, 5% glycerol; global fit to an ideal single-species model"}, "[3]": {"tested_on": "EcRHH-RcPutA chimaera (Escherichia coli / Rhodobacter capsulatus (chimaera))", "assay": "EMSA", "conditions": "EMSA with 3 nM IRdye-700 put control DNA, 100 ug/ml calf thymus DNA, non-denaturing 4% polyacrylamide gel; binding buffer, salt, pH and temperature not given …"}},
  "note": "Read-outs that look alike come from different tables or passages of the source.",
  "data": [
    {"compound": "COC1=C(OC)C(=O)C(CC=C(C)C)=C(C)C1=O", "note": "[CoQ1]", "values": [
      {"measurement": "Km", "setting": "EcRHH–RcPutA; PRODH electron acceptor, 200 mM proline, read-out: Proline / Km", "value": "161 ± 15.8", "unit": "µM"}
    ]},
    {"compound": "O=C(O)[C@@H]1CCCN1", "note": "[proline]", "values": [
      {"measurement": "Km", "setting": "EcRHH–RcPutA; PRODH site, 300 μM CoQ1, read-out: Km", "value": "5300 ± 900", "unit": "µM"},
      {"measurement": "lipid pull-down (E. coli polar lipid vesicles), SDS/PAGE", "setting": "EcPutA", "value": "RcPutA, EcRHH–RcPutA and EcPutA were incubated with E. coli polar lipid vesicles"},
      {"measurement": "lipid pull-down (E. coli polar lipid vesicles), SDS/PAGE", "setting": "RcPutA", "value": "In the presence of proline, RcPutA and EcRHH–RcPutA significantly partition into the lipid fraction"}
    ]},
    {"compound": "EcRHH–RcPutA chimaera (RHH domain of Escherichia coli PutA fused to the N-terminus of Rhodobacter capsulatus PutA) (from UniProt P09546 1-52) (enzyme)", "values": [
      {"measurement": "stoichiometry N", "setting": "[1]", "value": 2},
      {"measurement": "stoichiometry N", "setting": "[2]", "value": 2}
    ]},
    {"compound": "put control DNA (420 bp)", "values": [
      {"measurement": "Kd", "setting": "[3]", "value": 0.058, "unit": "µM"}
    ]}
  ]
}
